Several values for one entry are separate records, joined by “and”; a condition that tells them apart may be missing. Equal values may be shown once.
Test system: CD2F1 mice, P1798 lymphosarcoma sc, tumor weight T/C
Assay: NCI In Vivo Anticancer Drug Screen. Data for tumor model P1798 Lymphosarcoma (subcutaneous) in CD2F1 (CDF1) mice
Settings: endpoint: mean tumor weight, higher = larger tumour
Description: The antitumor activity of compounds was measured in mice bearing transplantable tumors. Survival or tumor size were measured and the results are expressed as the measurement made in the treated group (T) divided by the measurement made in the vehicle treated control group (C). The tumor model used in this assay is P1798 Lymphosarcoma (subcutaneous) in CD2F1 (CDF1) mice

[1] = dose: 25.0 mg/kg/injection, schedule: Q01DX010 (ip), vehicle: saline
[2] = dose: 50.0 mg/kg/injection, schedule: Q01DX010 (ip), vehicle: saline
[3] = dose: 100.0 mg/kg/injection, schedule: Q01DX010 (ip), vehicle: saline
[4] = dose: 200.0 mg/kg/injection, schedule: Q01DX010 (ip), vehicle: saline
[5] = dose: 400.0 mg/kg/injection, schedule: Q01DX010 (ip), vehicle: saline
[6] = dose: 6.25 mg/kg/injection, schedule: Q01DX010 (ip), vehicle: saline
[7] = dose: 12.5 mg/kg/injection, schedule: Q01DX010 (ip), vehicle: saline
[8] = dose: 0.25 mg/kg/injection, schedule: Q01DX010 (ip), vehicle: saline
[9] = dose: 50.0 mg/kg/injection, schedule: Q01DX010 (sc), vehicle: steriod suspending solution

`CC(=O)OC(C)(C)/C=C/C(=O)[C@](C)(O)[C@H]1[C@H](O)C[C@@]2(C)[C@@H]3CC=C4[C@@H](C=C(O)C(=O)C4(C)C)[C@]3(C)C(=O)C[C@]12C` was tested, and the T/C (dose: 0.15 mg/kg/injection, schedule: Q01DX009 (ip), vehicle: saline with Tween-80) was 100 % of control, the T/C (dose: 0.3 mg/kg/injection, schedule: Q01DX009 (ip), vehicle: saline with Tween-80) was 84 % of control and the T/C (dose: 0.4 mg/kg/injection, schedule: Q01DX011 (ip), vehicle: carboxymethylcellulose (CMC)) was 84 % of control. The T/C (dose: 0.6 mg/kg/injection, schedule: Q01DX009 (ip), vehicle: saline with Tween-80) was 92 % of control, the T/C (dose: 0.8 mg/kg/injection, schedule: Q01DX011 (ip), vehicle: carboxymethylcellulose (CMC)) was 95 % of control and the T/C (dose: 1.6 mg/kg/injection, schedule: Q01DX011 (ip), vehicle: carboxymethylcellulose (CMC)) was 115 % of control. The T/C (dose: 3.2 mg/kg/injection, schedule: Q01DX011 (ip), vehicle: carboxymethylcellulose (CMC)) was 47 % of control.

For `NC(N)=NCCCC(N)C(=O)NCCCCCCNC(=O)C(N)CCCN=C(N)N` (centres undefined), the T/C [1] was 94 % of control, the T/C [2] was 85 % of control and the T/C [3] was 99 % of control. For the same compound, the T/C [4] was 90 % of control.

For `COc1ccc2c(c1OC)C(=O)O[C@@H]2[C@H]1c2c(cc3c(c2OC)OCO3)CCN1C`, the T/C (dose: 15.6 mg/kg/injection, schedule: Q01DX010 (ip), vehicle: saline) was 107 % of control, the T/C (dose: 31.3 mg/kg/injection, schedule: Q01DX010 (ip), vehicle: saline) was 78 % of control and the T/C (dose: 125.0 mg/kg/injection, schedule: Q01DX010 (ip), vehicle: saline) was 97 % of control. The T/C (dose: 250.0 mg/kg/injection, schedule: Q01DX010 (ip), vehicle: saline) was 78 % of control.

For `CC(/C=N/N=C(N)N)=N\N=C(N)N`, the T/C (dose: 15.0 mg/kg/injection, schedule: Q01DX010 (ip), vehicle: saline) was 78 % of control, the T/C (dose: 30.0 mg/kg/injection, schedule: Q01DX010 (ip), vehicle: saline) was 87 % of control and the T/C (dose: 60.0 mg/kg/injection, schedule: Q01DX010 (ip), vehicle: saline) was 50 % of control.

`Nc1nc(N)c2nc(CNc3ccc(C(=O)NC(CCC(=O)O)C(=O)O)cc3)cnc2n1` (centres undefined) was tested, and the T/C (dose: 50.0 micrograms/kg/injection, schedule: Q01DX010 (ip), vehicle: other) was 110 % of control, the T/C (dose: 100.0 micrograms/kg/injection, schedule: Q01DX010 (ip), vehicle: other) was 100 % of control and the T/C (dose: 200.0 micrograms/kg/injection, schedule: Q01DX010 (ip), vehicle: other) was 79 % of control.

`Nc1nc(SCc2ccccc2)c2[nH]cnc2n1` was tested, and the T/C (dose: 16.0 mg/kg/injection, schedule: Q01DX010 (ip), vehicle: saline) was 86 % of control and the T/C (dose: 64.0 mg/kg/injection, schedule: Q01DX010 (ip), vehicle: saline) was 90 % of control.

`CO[C@@H]1[C@@H](OC2OC(C)C(OC3CC(C)(O)C(OC(=O)CC(C)C)C(C)O3)C(N(C)C)C2O)[C@@H](CC=O)C[C@@H](C)C(=O)/C=C/C2O[C@H]2C[C@@H](C)OC(=O)C[C@H]1OC(C)=O` (some centres undefined) was tested, and the T/C [2] was 89 % of control, the T/C (dose: 75.0 mg/kg/injection, schedule: Q01DX010 (ip), vehicle: saline) was 105 % of control and the T/C [3] was 90 % of control. The T/C (dose: 150.0 mg/kg/injection, schedule: Q01DX010 (ip), vehicle: saline) was 90 % of control, the T/C [4] was 95 % of control and the T/C (dose: 300.0 mg/kg/injection, schedule: Q01DX010 (ip), vehicle: saline) was 21 % of control. The T/C [5] was 71 % of control.

With `NC(N)=NCCCC(N)C(=O)NCCCCCCCCCCNC(=O)C(N)CCCN=C(N)N` (centres undefined) the T/C [6] was 103 % of control, the T/C [7] was 110 % of control and the T/C [1] was 78 % of control. For the same compound, the T/C [2] was 99 % of control.

With `CC(=O)OC(C)(C)/C=C/C(=O)[C@](C)(O)[C@H]1[C@H](O)C[C@@]2(C)[C@@H]3CC=C4[C@@H](C[C@H](O)C(=O)C4(C)C)[C@]3(CO)C(=O)C[C@]12C` the T/C (dose: 0.16 mg/kg/injection, schedule: Q01DX010 (ip), vehicle: saline) was 108 % of control, the T/C [8] was 110 % of control and the T/C (dose: 0.38 mg/kg/injection, schedule: Q01DX010 (ip), vehicle: saline) was 104 % of control.

`CCCNc1ncnc2c1cnn2C` was tested, and the T/C (dose: 3.13 mg/kg/injection, schedule: Q01DX010 (ip), vehicle: saline) was 90 % of control, the T/C [6] was 103 % of control and the T/C [7] was 86 % of control.

For `CC(=O)[C@H]1CC[C@H]2[C@@H]3C[C@H](C)C4=CC(=O)CC[C@]4(C)[C@@]3(F)[C@@H](O)C[C@]12C`, the T/C [9] was 11 % of control, the T/C (dose: 100.0 mg/kg/injection, schedule: Q01DX010 (sc), vehicle: steriod suspending solution) was 4 % of control and the T/C (dose: 200.0 mg/kg/injection, schedule: Q01DX010 (sc), vehicle: steriod suspending solution) was 2 % of control. The T/C (dose: 400.0 mg/kg/injection, schedule: Q01DX010 (sc), vehicle: steriod suspending solution) was 2 % of control.

With `NCCCCC(N)C(=O)NCCCCCCNC(=O)CCCCC(=O)NCCCCCCNC(=O)C(N)CCCCN` (centres undefined) the T/C [7] was 101 % of control, the T/C [1] was 90 % of control and the T/C [2] was 94 % of control. For the same compound, the T/C [3] was 110 % of control.

With `[N-]=[N+]=CC(=O)CCC(N)C(=O)O` (centres undefined) the T/C (dose: 0.01 mg/kg/injection, schedule: Q01DX010 (ip), vehicle: saline) was 102 % of control, the T/C (dose: 0.03 mg/kg/injection, schedule: Q01DX010 (ip), vehicle: saline) was 89 % of control and the T/C (dose: 0.05 mg/kg/injection, schedule: Q01DX010 (ip), vehicle: saline) was 100 % of control. For the same compound, the T/C (dose: 0.1 mg/kg/injection, schedule: Q01DX010 (ip), vehicle: saline) was 108 % of control.

For `N#Cc1cn(C2OC(CO)C(O)C2O)c2ncnc(N)c12` (centres undefined), the T/C (dose: 0.06 mg/kg/injection, schedule: Q01DX010 (ip), vehicle: saline) was 86 % of control, the T/C (dose: 0.12 mg/kg/injection, schedule: Q01DX010 (ip), vehicle: saline) was 61 % of control and the T/C [8] was 69 % of control and 76 % of control. The T/C (dose: 0.5 mg/kg/injection, schedule: Q01DX010 (ip), vehicle: saline) was 72 % of control, the T/C (dose: 1.0 mg/kg/injection, schedule: Q01DX010 (ip), vehicle: saline) was 68 % of control and the T/C (dose: 2.0 mg/kg/injection, schedule: Q01DX010 (ip), vehicle: saline) was 62 % of control.

With `Nc1nc(=O)n(C2CC(O)C(CO)O2)cc1Br` (centres undefined) the T/C [2] was 81 % of control, the T/C [3] was 65 % of control and the T/C [4] was 39 % of control. For the same compound, the T/C [5] was 29 % of control and the T/C (dose: 800.0 mg/kg/injection, schedule: Q01DX010 (ip), vehicle: saline) was 7 % of control.

With `Nc1ncnc2c1ncn2C1OC(COCc2ccccc2)C(OCc2ccccc2)C1OCc1ccccc1` (centres undefined) the T/C (dose: 10.0 mg/kg/injection, schedule: Q01DX010 (ip), vehicle: saline) was 107 % of control and 115 % of control, the T/C (dose: 20.0 mg/kg/injection, schedule: Q01DX010 (ip), vehicle: saline) was 92 % of control and 109 % of control and the T/C (dose: 40.0 mg/kg/injection, schedule: Q01DX010 (ip), vehicle: saline) was 114 % of control and 89 % of control. For the same compound, the T/C (dose: 80.0 mg/kg/injection, schedule: Q01DX010 (ip), vehicle: saline) was 93 % of control and 104 % of control.

`CC1C[C@@H]2[C@H]([C@@H](O)C[C@@]3(C)[C@H]2CC[C@]3(O)C(=O)CF)[C@@]2(C)CCC(=O)C=C12` (some centres undefined) was tested, and the T/C (dose: 12.5 mg/kg/injection, schedule: Q01DX005 (sc), vehicle: steriod suspending solution) was 92 % of control, the T/C (dose: 12.5 mg/kg/injection, schedule: Q01DX010 (sc), vehicle: steriod suspending solution) was 54 % of control and 60 % of control and the T/C (dose: 25.0 mg/kg/injection, schedule: Q01DX005 (sc), vehicle: steriod suspending solution) was 47 % of control. For the same compound, the T/C (dose: 25.0 mg/kg/injection, schedule: Q01DX010 (sc), vehicle: steriod suspending solution) was 57 % of control and 71 % of control, the T/C (dose: 50.0 mg/kg/injection, schedule: Q01DX005 (sc), vehicle: steriod suspending solution) was 55 % of control and the T/C [9] was 58 % of control and 65 % of control. For the same compound, the T/C (dose: 50.0 mg/kg/injection, schedule: Q03DX004 (sc), vehicle: steriod suspending solution) was 66 % of control, the T/C (dose: 75.0 mg/kg/injection, schedule: Q02DX010 (sc), vehicle: steriod suspending solution) was 100 % of control and the T/C (dose: 100.0 mg/kg/injection, schedule: Q01DX005 (sc), vehicle: steriod suspending solution) was 14 % of control. For the same compound, the T/C (dose: 100.0 mg/kg/injection, schedule: Q02DX010 (sc), vehicle: steriod suspending solution) was 93 % of control, the T/C (dose: 100.0 mg/kg/injection, schedule: Q03DX004 (sc), vehicle: steriod suspending solution) was 61 % of control and the T/C (dose: 150.0 mg/kg/injection, schedule: Q01DX010 (sc), vehicle: steriod suspending solution) was 118 % of control. The T/C (dose: 150.0 mg/kg/injection, schedule: Q02DX010 (sc), vehicle: steriod suspending solution) was 95 % of control and the T/C (dose: 200.0 mg/kg/injection, schedule: Q03DX004 (sc), vehicle: steriod suspending solution) was 25 % of control.

With `NC1(C(=O)O)CCCC1` the T/C (dose: 22.5 mg/kg/injection, schedule: Q01DX010 (ip), vehicle: saline) was 40 % of control and 48 % of control, the T/C (dose: 45.0 mg/kg/injection, schedule: Q01DX010 (ip), vehicle: saline) was 21 % of control and 38 % of control and the T/C (dose: 90.0 mg/kg/injection, schedule: Q01DX010 (ip), vehicle: saline) was 4 % of control.
